Like-named read-outs stand apart in the source and are kept apart here.
Legend:
WEE1 = molecular target: T1, WEE1 (Homo sapiens, UniProt P30291+Q96SW2); experiment: WEE1-ePL degradation assay (LentiX-WEE1-ePL-GSPT1-ND cells, InCELL Hunter luminescence, 4 h); type: cell-based; conditions: 293T-LentiX WEE1-ePL cells; for DC50: read-out: 293T-LentiX WEE1-ePL Degradation 4 hr (EC50)
T1 construct: C-terminal ePL-tagged (DiscoverX, Fremont, CA) full-length WEE1 expression construct; expressed in transfected cells; host or cells: LentiX-HEK293T (Invitrogen), lentiviral transduction; co-expressing GSPT1-GN (G576N, lacking the first 158 amino acids)
Method in brief: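 Degradation EC50 was fitted by a four-parameter logistic model, with the upper limit taken from DMSO wells. Luminescence was read with InCELL Hunter reagent after 30 min at room temperature, following a 4 h, 37° C exposure of 2500 cells/well. Cells were LentiX-HEK293T carrying ePL-tagged full-length WEE1, dosed in 10 points (3-fold) from 1 or 10 uM.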

MKN45 cells = experiment: MKN45 cell proliferation assay (Cell-Titer-Glo, 120 h); type: cell-based; conditions: for EC50: Homo sapiens, MKN-45, 120 h, Cell-Titer-Glo, read-out: MKN45 Cell Prolif. 120 hr (EC50); for MKN45 Cell Prolif. 120 hr (Ymin-Obs): minimal percent of DMSO control observed in the concentrations tested
Method in brief: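 Cells seeded at 400/well onto pre-printed 10-point half-log dilutions (top 1 or 10 uM, 0.1% DMSO final), in triplicate, and grown 120 h at 37 C. Viability by Cell-Titer-Glo luminescence, blank-subtracted and normalised to DMSO; EC50 from four-parameter logistic fit, with observed minimal % of control recorded as Ymin-obs.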

[1] = lower limit of the fit (Ymin=0 luciferase inhibitor, Ymax DMSO control)
[2] = lower limit of the fit (0 = luciferase inhibitor, Ymax = DMSO control)

| 293T-LentiX WEE1-ePL Degradation 4 hr (Ymin) (WEE1; [1]) | DC50 (WEE1) [nM] | EC50 (MKN45 cells) [nM] | 293T-LentiX WEE1-ePL Degradation 4 hr (Ymin) (WEE1; [2]) | EC50 (MKN45 cells; growth inhibition) [nM] | Compound | MKN45 Cell Prolif. 120 hr (Ymin-Obs) (MKN45 cells) |
| --- | --- | --- | --- | --- | --- | --- |
| 36.09 | 35.8 | 13.8 | – | – | CC(=O)N1CCC(c2ncc3cc(CN4CC[C@H](Oc5ccc6c(c5)CN([C@H]5CCC(=O)NC5=O)C6=O)C4)ccc3n2)CC1 [(3S)-3-(5-{[(3S)-1-{[2-(1-acetylpiperidin-4-yl)quinazolin-6-yl]methyl}pyrrolidin-3-yl]oxy}-1-oxo-2,3-dihydro-1H-isoindol-2-yl)piperidine-2,6-dione] | 9.035 |
| 36.62 | 10.1 | 11.8 | – | – | CC(=O)N1CCC(c2ccc3cc(CN4CC[C@H](Oc5ccc6c(c5)CN([C@H]5CCC(=O)NC5=O)C6=O)C4)ccc3n2)CC1 [(3S)-3-(5-{[(3S)-1-{[2-(1-acetylpiperidin-4-yl)quinolin-6-yl]methyl}pyrrolidin-3-yl]oxy}-1-oxo-2,3-dihydro-1H-isoindol-2-yl)piperidine-2,6-dione] | 10.38 |
| – | 1.69 | – | 33.92 | 10.1 | CC(C)(O)c1ccc2cc(CN3CC[C@H](Oc4ccc5c(c4)CN([C@H]4CCC(=O)NC4=O)C5=O)C3)ccc2n1 [(3S)-3-(5-{[(3S)-1-{[2-(2-hydroxypropan-2-yl)quinolin-6-yl]methyl}pyrrolidin-3-yl]oxy}-1-oxo-2,3-dihydro-1H-isoindol-2-yl)piperidine-2,6-dione] | 12.89 |
| 39.39 | 9.27 | 8.63 | – | – | CC(=O)N1CCN(c2ncc3cc(CN4CC[C@H](Oc5ccc6c(c5)CN([C@H]5CCC(=O)NC5=O)C6=O)C4)ccc3n2)CC1 [(3S)-3-(5-{[(3S)-1-{[2-(4-acetylpiperazin-1-yl)quinazolin-6-yl]methyl}pyrrolidin-3-yl]oxy}-1-oxo-2,3-dihydro-1H-isoindol-2-yl)piperidine-2,6-dione] | 9.801 |
| 40.44 | 1.69 | 9.94 | – | – | CC(=O)N1CCN(c2ccc3cc(CN4CC[C@H](Oc5ccc6c(c5)CN([C@H]5CCC(=O)NC5=O)C6=O)C4)ccc3n2)CC1 [(3S)-3-(5-{[(3S)-1-{[2-(4-acetylpiperazin-1-yl)quinolin-6-yl]methyl}pyrrolidin-3-yl]oxy}-1-oxo-2,3-dihydro-1H-isoindol-2-yl)piperidine-2,6-dione] | 17.95 |
| 37.97 | 11.1 | 15.2 | – | – | CN1CCN(c2ncc3cc(CN4CC[C@H](Oc5ccc6c(c5)CN([C@H]5CCC(=O)NC5=O)C6=O)C4)ccc3n2)CC1 [(3S)-3-(5-{[(3S)-1-{[2-(4-methylpiperazin-1-yl)quinazolin-6-yl]methyl}pyrrolidin-3-yl]oxy}-1-oxo-2,3-dihydro-1H-isoindol-2-yl)piperidine-2,6-dione] | 12.23 |
| 45.2 | 12.1 | 33.8 | – | – | O=C1CC[C@H](N2Cc3cc(O[C@H]4CCN(Cc5ccc6nc(N7CCC7)ncc6c5)C4)ccc3C2=O)C(=O)N1 [(3S)-3-(5-{[(3S)-1-{[2-(azetidin-1-yl)quinazolin-6-yl]methyl}pyrrolidin-3-yl]oxy}-1-oxo-2,3-dihydro-1H-isoindol-2-yl)piperidine-2,6-dione] | 31.75 |
| 33.06 | 1.8 | 8.91 | – | – | O=C1CC[C@H](N2Cc3cc(O[C@H]4CCN(Cc5cc(C(F)(F)F)c6nc(N7CCOCC7)ncc6c5)C4)ccc3C2=O)C(=O)N1 [(3S)-3-(5-{[(3S)-1-{[2-(morpholin-4-yl)-8-(trifluoromethyl)quinazolin-6-yl]methyl}pyrrolidin-3-yl]oxy}-1-oxo-2,3-dihydro-1H-isoindol-2-yl)piperidine-2,6-dione] | 3.502 |
| – | 7.36 | – | 34 | 11.7 | O=C1CC[C@H](N2Cc3cc(O[C@H]4CCN(Cc5ccc6nc(N7CCOCC7)ncc6c5)C4)ccc3C2=O)C(=O)N1 [(3S)-3-(5-{[(3S)-1-{[2-(morpholin-4-yl)quinazolin-6-yl]methyl}pyrrolidin-3-yl]oxy}-1-oxo-2,3-dihydro-1H-isoindol-2-yl)piperidine-2,6-dione] | 11.86 |
| – | 1.83 | – | 34.59 | 9.71 | O=C1CC[C@H](N2Cc3cc(O[C@H]4CCN(Cc5ccc6nc(N7CCOCC7)ccc6c5)C4)ccc3C2=O)C(=O)N1 [(3S)-3-(5-{[(3S)-1-{[2-(morpholin-4-yl)quinolin-6-yl]methyl}pyrrolidin-3-yl]oxy}-1-oxo-2,3-dihydro-1H-isoindol-2-yl)piperidine-2,6-dione] | 14.56 |
| 88.43 | – | 2.94 | – | – | O=C1CC[C@H](N2Cc3cc(O[C@H]4CCN(Cc5cc(C6COC6)c6nc(C7CCOCC7)ccc6c5)C4)ccc3C2=O)C(=O)N1 [(3S)-3-(5-{[(3S)-1-{[2-(oxan-4-yl)-8-(oxetan-3-yl)quinolin-6-yl]methyl}pyrrolidin-3-yl]oxy}-1-oxo-2,3-dihydro-1H-isoindol-2-yl)piperidine-2,6-dione] | 96.91 |
| 42.83 | 2.48 | 2.99 | – | – | O=C1CC[C@H](N2Cc3cc(O[C@H]4CCN(Cc5cc(C(F)(F)F)c6nc(C7CCOCC7)ccc6c5)C4)ccc3C2=O)C(=O)N1 [(3S)-3-(5-{[(3S)-1-{[2-(oxan-4-yl)-8-(trifluoromethyl)quinolin-6-yl]methyl}pyrrolidin-3-yl]oxy}-1-oxo-2,3-dihydro-1H-isoindol-2-yl)piperidine-2,6-dione] | 2.25 |
| – | 75 | – | 32.12 | 29.3 | O=C1CC[C@H](N2Cc3cc(O[C@H]4CCN(Cc5ccc6nc(C7CCOCC7)ncc6c5)C4)ccc3C2=O)C(=O)N1 [(3S)-3-(5-{[(3S)-1-{[2-(oxan-4-yl)quinazolin-6-yl]methyl}pyrrolidin-3-yl]oxy}-1-oxo-2,3-dihydro-1H-isoindol-2-yl)piperidine-2,6-dione] | 9.327 |
| – | 1.62 | – | 31.9 | 3.12 | O=C1CC[C@H](N2Cc3cc(O[C@H]4CCN(Cc5ccc6nc(C7CCOCC7)ccc6c5)C4)ccc3C2=O)C(=O)N1 [(3S)-3-(5-{[(3S)-1-{[2-(oxan-4-yl)quinolin-6-yl]methyl}pyrrolidin-3-yl]oxy}-1-oxo-2,3-dihydro-1H-isoindol-2-yl)piperidine-2,6-dione] | 10.43 |
| 28.46 | 3.58 | 18.3 | – | – | O=C1CC[C@H](N2Cc3cc(O[C@H]4CCN(Cc5ccc6nc(N7CCOCC7)ncc6c5Cl)C4)ccc3C2=O)C(=O)N1 [(3S)-3-(5-{[(3S)-1-{[5-chloro-2-(morpholin-4-yl)quinazolin-6-yl]methyl}pyrrolidin-3-yl]oxy}-1-oxo-2,3-dihydro-1H-isoindol-2-yl)piperidine-2,6-dione] | 17.49 |
| – | 0.306 | – | 34.42 | 2.1 | O=C1CC[C@H](N2Cc3cc(O[C@H]4CCN(Cc5ccc6nc(C7CCOCC7)ccc6c5F)C4)ccc3C2=O)C(=O)N1 [(3S)-3-(5-{[(3S)-1-{[5-fluoro-2-(oxan-4-yl)quinolin-6-yl]methyl}pyrrolidin-3-yl]oxy}-1-oxo-2,3-dihydro-1H-isoindol-2-yl)piperidine-2,6-dione] | 12.14 |
| – | 0.844 | – | 33.42 | 1.82 | O=C1CC[C@H](N2Cc3cc(O[C@H]4CCN(Cc5cc6ccc(C7CCOCC7)cc6cn5)C4)ccc3C2=O)C(=O)N1 [(3S)-3-(5-{[(3S)-1-{[7-(oxan-4-yl)isoquinolin-3-yl]methyl}pyrrolidin-3-yl]oxy}-1-oxo-2,3-dihydro-1H-isoindol-2-yl)piperidine-2,6-dione] | 8.913 |
| 36.02 | 14.7 | 15.2 | – | – | O=C1CC[C@H](N2Cc3cc(O[C@H]4CCN(Cc5cc6cnc(N7CCOCC7)nc6cc5F)C4)ccc3C2=O)C(=O)N1 [(3S)-3-(5-{[(3S)-1-{[7-fluoro-2-(morpholin-4-yl)quinazolin-6-yl]methyl}pyrrolidin-3-yl]oxy}-1-oxo-2,3-dihydro-1H-isoindol-2-yl)piperidine-2,6-dione] | 10.84 |
| 53.75 | 6.72 | 166 | – | – | CC(C)(O)c1cc(CN2CC[C@H](Oc3ccc4c(c3)CN([C@H]3CCC(=O)NC3=O)C4=O)C2)cc2ccc(C3CCOCC3)nc12 [(3S)-3-(5-{[(3S)-1-{[8-(2-hydroxypropan-2-yl)-2-(oxan-4-yl)quinolin-6-yl]methyl}pyrrolidin-3-yl]oxy}-1-oxo-2,3-dihydro-1H-isoindol-2-yl)piperidine-2,6-dione] | 75.97 |
